Assay results as given in EP4755888A1 (ILAb Co., Ltd., priority 2023, dated 2025).
pIC50: −log10 of the molar value.

target: PD-1/PD-L1 (Homo sapiens, UniProt Q9NZQ7); assay: TR-FRET PD-1/PD-L1 binding inhibition at the molecular level (free proteins); settings: Tag1-PD-L1 and Tag2-PD-1 proteins, twelve concentrations from 200 nM, 2 hours at room temperature, read-out: FRET assay (IC50)
Summary of the method: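 HTRF read-out at 665/620 nm after 2 h at room temperature. Detection used anti-Tag1 Eu cryptate plus anti-Tag2 XL665 antibodies. Tagged PD-L1 and PD-1 proteins were pre-mixed with compound across twelve […] 1:2 dilutions starting at 200 nM.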

PD-1/PD-L1, sequence (Q9NZQ7 19-238 limits assumed): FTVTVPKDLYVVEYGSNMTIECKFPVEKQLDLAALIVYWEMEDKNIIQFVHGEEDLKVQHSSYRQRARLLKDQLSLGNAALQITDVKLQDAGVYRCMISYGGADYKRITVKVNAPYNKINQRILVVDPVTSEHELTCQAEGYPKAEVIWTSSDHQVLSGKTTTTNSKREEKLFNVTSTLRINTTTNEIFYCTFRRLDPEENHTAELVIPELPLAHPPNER

Row | SMILES | pIC50
1 | O=C(Nc1cccc(-c2cccc(Nc3nccc4cc(CN5CC[C@@H](O)C5)cnc34)c2Cl)c1Cl)c1cc2n(n1)CCCC2NC1CCC(O)CC1 (stereo partly drawn) [Compound 233, N-(2,2'-dichloro-3'-((3-(((R)-3-hydroxypyrrolidin-1-yl)methyl)-1,7-naphthyridin-8-yl)amino)-[1,1'-biphenyl]-3-yl)-4-((4-hydroxycyclohexyl)amino)-4,5,6,7-tetrahydropyrazolo[1,5-a]pyridine-2-carboxamideide] | 7.00 to 8.00
2 | COCCNC1CCCn2nc(C(=O)Nc3cccc(-c4cccc(Nc5nccc6cc(CN7CC[C@@H](O)C7)cnc56)c4Cl)c3Cl)cc21 (stereo partly drawn) [Compound 234, N-(2,2'-dichloro-3'-((3-(((R)-3-hydroxypyrrolidin-1-yl)methyl)-1,7-naphthyridin-8-yl)amino)-[1,1'-biphenyl]-3-yl)-4-((2-methoxyethyl)amino)-4,5,6,7-tetrahydropyrazolo[1,5-a]pyridine-2-carboxamide] | 7.00 to 8.00
3 | CS(=O)(=O)NCCNC1CCCn2nc(C(=O)Nc3cccc(-c4cccc(Nc5nccc6cc(CN7CC[C@@H](O)C7)cnc56)c4Cl)c3Cl)cc21 (stereo partly drawn) [Compound 235, N-(2,2'-dichloro-3'-((3-(((R)-3-hydroxypyrrolidin-1-yl)methyl)-1,7-naphthyridin-8-yl)amino)-[1,1'-biphenyl]-3-yl)-4-((2-(methylsulfonamido)ethyl)amino)-4,5,6,7-tetrahydropyrazolo[1,5-a]pyridine-2-carboxamide] | 7.00 to 8.00
4 | CC(=O)N1CC2(C1)CN(C1CCCn3nc(C(=O)Nc4cccc(-c5cccc(Nc6nccc7cc(CN8CC[C@@H](O)C8)cnc67)c5Cl)c4Cl)cc31)C2 (stereo partly drawn) [Compound 236, 4-(6-acetyl-2,6-diazaspiro[3.3]heptan-2-yl)-N-(2,2'-dichloro-3'-((3-(((R)-3-hydroxypyrrolidin-1-yl)methyl)-1,7-naphthyridin-8-yl)amino)-[1,1'-biphenyl]-3-yl)-4,5,6,7-tetrahydropyrazolo[1,5-a]pyridine-2-carboxamide] | 7.00 to 8.00
5 | CC(C)(O)C1CN(C2CCCn3nc(C(=O)Nc4cccc(-c5cccc(Nc6nccc7cc(CN8CC[C@@H](O)C8)cnc67)c5Cl)c4Cl)cc32)C1 (stereo partly drawn) [Compound 237, N-(2,2'-dichloro-3'-((3-(((R)-3-hydroxypyrrolidin-1-yl)methyl)-1,7-naphthyridin-8-yl)amino)-[1,1'-biphenyl]-3-yl)-4-(3-(2-hydroxypropan-2-yl)azetidin-1-yl)-4,5,6,7-tetrahydropyrazolo[1,5-a]pyridine-2-carboxamide] | 7.00 to 8.00
6 | O=C1CCC2(CN(C3CCCn4nc(C(=O)Nc5cccc(-c6cccc(Nc7nccc8cc(CN9CC[C@@H](O)C9)cnc78)c6Cl)c5Cl)cc43)C2)N1 (stereo partly drawn) [Compound 238, N-(2,2'-dichloro-3'-((3-(((R)-3-hydroxypyrrolidin-1-yl)methyl)-1,7-naphthyridin-8-yl)amino)-[1,1'-biphenyl]-3-yl)-4-(6-oxo-2,5-diazaspiro[3.4]octan-2-yl)-4,5,6,7-tetrahydropyrazolo[1,5-a]pyridine-2-carboxamide] | 7.00 to 8.00
7 | O=C(O)CCCNC1CCCn2nc(C(=O)Nc3cccc(-c4cccc(Nc5nccc6cc(CN7CC[C@@H](O)C7)cnc56)c4Cl)c3Cl)cc21 (stereo partly drawn) [Compound 239, 4-((2-((2,2'-dichloro-3'-((3-(((R)-3-hydroxypyrrolidin-1-yl)methyl)-1,7-naphthyridin-8-yl)amino)-[1,1'-biphenyl]-3-yl)carbamoyl)-4,5,6,7-tetrahydropyrazolo[1,5-a]pyridin-4-yl)amino)butanoic acid] | 7.00 to 8.00
8 | O=C(Nc1cccc(-c2cccc(Nc3nccc4cc(CN5CC[C@@H](O)C5)cnc34)c2Cl)c1Cl)c1cc2n(n1)CCCC2N1CCCC1=O (stereo partly drawn) [Compound 240, N-(2,2'-dichloro-3'-((3-(((R)-3-hydroxypyrrolidin-1-yl)methyl)-1,7-naphthyridin-8-yl)amino)-[1,1'-biphenyl]-3-yl)-4-(2-oxopyrrolidin-1-yl)-4,5,6,7-tetrahydropyrazolo[1,5-a]pyridine-2-carboxamide] | 7.00 to 8.00
9 | CC(=O)NCCN[C@H]1CCCn2nc(C(=O)Nc3cccc(-c4cccc(NC(=O)c5ccc(CNCCO)cn5)c4Cl)c3Cl)cc21 [Compound 241, (S)-4-((2-acetamidoethyl)amino)-N-(2,2'-dichloro-3'-(5-(((2-hydroxyethyl)amino)methyl)picolinamido)-[1,1'-biphenyl]-3-yl)-4,5,6,7-tetrahydropyrazolo[1,5-a]pyridine-2-carboxamide] | > 8.00
10 | CC(=O)NCCN[C@@H]1CCCn2nc(C(=O)Nc3cccc(-c4cccc(NC(=O)c5ccc(CNCCO)cn5)c4Cl)c3Cl)cc21 [Compound 242, (R)-4-((2-acetamidoethyl)amino)-N-(2,2'-dichloro-3'-(5-(((2-hydroxyethyl)amino)methyl)picolinamido)-[1,1'-biphenyl]-3-yl)-4,5,6,7-tetrahydropyrazolo[1,5-a]pyridine-2-carboxamide] | > 8.00
11 | O=C(Nc1cccc(-c2cccc(NC(=O)c3cc4n(n3)CCC[C@@H]4N3CC[C@@H](O)C3)c2Cl)c1Cl)c1ccc(CNCCO)cn1 [Compound 243, (S)-N-(2,2'-dichloro-3'-(5-(((2-hydroxyethyl)amino)methyl)picolinamido)-[1,1'-biphenyl]-3-yl)-4-((R)-3-hydroxypyrrolidin-1-yl)-4,5,6,7-tetrahydropyrazolo[1,5-a]pyridine-2-carboxamide] | > 8.00
12 | O=C(Nc1cccc(-c2cccc(NC(=O)c3cc4n(n3)CCC[C@H]4N3CC[C@@H](O)C3)c2Cl)c1Cl)c1ccc(CNCCO)cn1 [Compound 244, (R)-N-(2,2'-dichloro-3'-(5-(((2-hydroxyethyl)amino)methyl)picolinamido)-[1,1'-biphenyl]-3-yl)-4-((R)-3-hydroxypyrrolidin-1-yl)-4,5,6,7-tetrahydropyrazolo[1,5-a]pyridine-2-carboxamide] | > 8.00
13 | COc1cc(-c2cccc(-c3cccc(NC(=O)c4cc5n(n4)CCC[C@@H]5NCC(=O)O)c3Cl)c2Cl)cc(F)c1CNCCO [Compound 245, (S)-2-((2-((2,2'-dichloro-3"-fluoro-4"-(((2-hydroxyethyl)amino)methyl)-5"-methoxy-[1,1':3',1"-terphenyl]-3-yl)carbamoyl)-4,5,6,7-tetrahydropyrazolo[1,5-a]pyridin-4-yl)amino)acetic acid] | > 8.00
14 | COc1cc(-c2cccc(-c3cccc(NC(=O)c4cc5n(n4)CCC[C@H]5NCC(=O)O)c3Cl)c2Cl)cc(F)c1CNCCO [Compound 246, (R)-2-((2-((2,2'-dichloro-3"-fluoro-4"-(((2-hydroxyethyl)amino)methyl)-5"-methoxy-[1,1':3',1"-terphenyl]-3-yl)carbamoyl)-4,5,6,7-tetrahydropyrazolo[1,5-a]pyridin-4-yl)amino)acetic acid] | > 8.00
15 | COc1cc(-c2cccc(-c3cccc(NC(=O)c4cc5n(n4)CCC[C@@H]5NCC(=O)O)c3Cl)c2Cl)cc(F)c1CN1CC[C@@H](O)C1 [Compound 247, 2-(((S)-2-((2,2'-dichloro-3"-fluoro-4"-(((R)-3-hydroxypyrrolidin-1-yl)methyl)-5"-methoxy-[1,1':3',1"-terphenyl]-3-yl)carbamoyl)-4,5,6,7-tetrahydropyrazolo[1,5-a]pyridin-4-yl)amino)acetic acid] | > 8.00
16 | COc1cc(-c2cccc(-c3cccc(NC(=O)c4cc5n(n4)CCC[C@H]5NCC(=O)O)c3Cl)c2Cl)cc(F)c1CN1CC[C@@H](O)C1 [Compound 248, 2-(((R)-2-((2,2'-dichloro-3"-fluoro-4"-(((R)-3-hydroxypyrrolidin-1-yl)methyl)-5"-methoxy-[1,1':3',1"-terphenyl]-3-yl)carbamoyl)-4,5,6,7-tetrahydropyrazolo[1,5-a]pyridin-4-yl)amino)acetic acid] | > 8.00
17 | COc1cc(-c2cccc(-c3cccc(NC(=O)c4cc5n(n4)CCC[C@@H]5NCC(=O)O)c3Cl)c2Cl)cc(F)c1CNC[C@@H]1CCC(=O)N1 [Compound 249, 2-(((S)-2-((2,2'-dichloro-3"-fluoro-5"-methoxy-4"-(((((S)-5-oxopyrrolidin-2-yl)methyl)amino)methyl)-[1,1':3',1"-terphenyl]-3-yl)carbamoyl)-4,5,6,7-tetrahydropyrazolo[1,5-a]pyridin-4-yl)amino)acetic acid] | 7.00 to 8.00
18 | COc1cc(-c2cccc(-c3cccc(NC(=O)c4cc5n(n4)CCC[C@H]5NCC(=O)O)c3Cl)c2Cl)cc(F)c1CNC[C@@H]1CCC(=O)N1 [Compound 250, 2-(((R)-2-((2,2'-dichloro-3"-fluoro-5"-methoxy-4"-(((((S)-5-oxopyrrolidin-2-yl)methyl)amino)methyl)-[1,1':3',1 "-terphenyl]-3-yl)carbamoyl)-4,5,6,7-tetrahydropyrazolo[1,5-a]pyridin-4-yl)amino)acetic acid] | 7.00 to 8.00
19 | Cc1c(NC(=O)c2cc3n(n2)CCC[C@@H]3NCCO)cccc1-c1cccc(NC(=O)c2cc3n(n2)CCC[C@@H]3NCCO)c1C [Compound 253, (4S,4'S)-N,N'-(2,2'-dimethyl-[1,1'-biphenyl]-3,3'-diyl)bis(4-((2-hydroxyethyl)amino)-4,5,6,7-tetrahydropyrazolo[1,5-a]pyridine-2-carboxamide)] | > 8.00
20 | Cc1nc(Nc2cccc(-c3cccc(NC(=O)c4cc5n(n4)CCC[C@@H]5N4CCC(C(=O)O)CC4)c3Cl)c2Cl)c2ncccc2n1 [Compound 254, (S)-1-(2-((2,2'-dichloro-3'-((2-methylpyrido[3,2-d]pyrimidin-4-yl)amino)-[1,1'-biphenyl]-3-yl)carbamoyl)-4,5,6,7-tetrahydropyrazolo[1,5-a]pyridin-4-yl)piperidine-4-carboxylic acid] | 7.00 to 8.00
21 | Cc1nc(Nc2cccc(-c3cccc(NC(=O)c4cc5n(n4)CCC[C@H]5N4CCC(C(=O)O)CC4)c3Cl)c2Cl)c2ncccc2n1 [Compound 255, (R)-1-(2-((2,2'-dichloro-3'-((2-methylpyrido[3,2-d]pyrimidin-4-yl)amino)-[1,1'-biphenyl]-3-yl)carbamoyl)-4,5,6,7-tetrahydropyrazolo[1,5-a]pyridin-4-yl)piperidine-4-carboxylic acid] | 7.00 to 8.00
